Drawing on patent US20090312288A1 (TAKEDA PHARMACEUTICAL COMPANY LIMITED, priority 2008, published 2009), this text covers IC50 for 31 molecules.

In the assay the target is Aurora B/INCENP (Homo sapiens, UniProt Q96GD4). The assay can be described thus: Determination of inhibition of AIK: Aurora B/INCENP direct fluorescence polarization (IMAP) assay. Format: biochemical. The conditions noted are these: 10 uM ATP, 0.8 nM Aurora B/INCENP; values given as bins; read-out: IC50 of Exemplified Compounds Against AIK B. How it is done: Detection of the reaction product is performed by addition of Progressive IMAP binding reagent (Molecular Devices). Reaction product may be determined quantitatively by FP using an Analyst HT plate reader (Molecular Devices) with an excitation wavelength at 485 nm and emission at 530 nm and using a Fluorescein 505 dichroic mirror.
Chain of Aurora B/INCENP (Q96GD4 whole entry): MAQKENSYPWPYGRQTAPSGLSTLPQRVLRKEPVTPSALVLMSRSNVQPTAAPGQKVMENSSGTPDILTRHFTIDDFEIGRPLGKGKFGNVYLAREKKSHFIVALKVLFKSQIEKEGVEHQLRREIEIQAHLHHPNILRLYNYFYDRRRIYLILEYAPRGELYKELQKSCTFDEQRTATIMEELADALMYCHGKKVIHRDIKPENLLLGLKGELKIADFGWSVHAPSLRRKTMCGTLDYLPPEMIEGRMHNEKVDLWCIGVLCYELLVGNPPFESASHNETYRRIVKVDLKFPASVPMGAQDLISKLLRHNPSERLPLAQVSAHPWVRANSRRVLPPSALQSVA
Chain of Aurora B/INCENP (Q9NQS7 whole entry partner): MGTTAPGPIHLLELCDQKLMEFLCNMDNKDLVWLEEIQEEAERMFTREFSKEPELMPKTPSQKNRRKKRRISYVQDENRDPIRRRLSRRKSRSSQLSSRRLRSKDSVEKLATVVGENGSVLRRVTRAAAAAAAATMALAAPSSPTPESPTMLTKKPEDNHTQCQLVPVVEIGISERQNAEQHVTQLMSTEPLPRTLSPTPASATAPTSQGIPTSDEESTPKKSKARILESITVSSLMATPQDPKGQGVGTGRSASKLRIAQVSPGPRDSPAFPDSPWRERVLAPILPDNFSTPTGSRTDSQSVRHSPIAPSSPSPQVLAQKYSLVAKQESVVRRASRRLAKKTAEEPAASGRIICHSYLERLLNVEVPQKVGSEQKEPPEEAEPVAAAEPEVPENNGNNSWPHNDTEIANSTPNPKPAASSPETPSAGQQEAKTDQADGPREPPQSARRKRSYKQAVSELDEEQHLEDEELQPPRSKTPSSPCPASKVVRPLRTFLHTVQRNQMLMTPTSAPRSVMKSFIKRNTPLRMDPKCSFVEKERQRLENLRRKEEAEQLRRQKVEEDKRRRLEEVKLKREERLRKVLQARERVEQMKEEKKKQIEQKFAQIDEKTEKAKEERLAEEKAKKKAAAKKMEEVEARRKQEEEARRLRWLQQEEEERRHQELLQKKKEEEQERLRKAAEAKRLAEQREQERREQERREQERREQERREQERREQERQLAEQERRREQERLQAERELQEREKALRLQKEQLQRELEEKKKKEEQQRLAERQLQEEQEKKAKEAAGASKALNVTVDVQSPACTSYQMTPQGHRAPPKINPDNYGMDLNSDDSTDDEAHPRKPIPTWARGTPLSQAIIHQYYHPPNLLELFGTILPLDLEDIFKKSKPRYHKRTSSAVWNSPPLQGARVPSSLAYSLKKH
The assay reaction may be initiated as follows: 2 ul of (3×) 300 nM Fl-Peptide/30 uM ATP was added to each well of the plate, followed by the addition of 2 ul of (3×) inhibitor (2 fold serial dilutions for 11 data points for each inhibitor) containing 15% DMSO. Two microliters of (3×) 2.4 nM AuroraB/INCENP solution may be added to initiate the reaction (final enzyme concentration was 0.8 nM for Aurora B/INCENP). The reaction mixture may then be incubated at room temperature for 45 min, and quenched and developed by addition of 20 ul of 1 to 400 diluted Progressive IMAP binding reagent in 1× proprietary Progressive IMAP binding buffer A. Fluorescence polarization readings of the resulting reaction mixtures may be measured after a 60-minute incubation at room temperature.
IC50 values may be calculated by non-linear curve fitting of the compound concentrations and fluorescent polarization values to the standard IC50 equation.
In general terms: Fluorescence polarisation rises when a labelled molecule tumbles more slowly, as on binding a larger partner.
The term IC50 denotes the point on the concentration scale where inhibition reaches its midpoint. In the case of `CCS(=O)(=O)c1cccc(-c2cc(C(=O)NC3CCNCC3)c(C)c3[nH]c4ncc(C)cc4c23)c1` [Compound 451, 5-(3-(ethylsulfonyl)phenyl)-3,8-dimethyl-N-(piperidin-4-yl)-9H-pyrido[2,3-b]indole-7-carboxamide], the IC50 lay in the range of 8.6 to 13 nM. With `c1ccc(Sc2cccc3[nH]c4ncccc4c23)cc1` [Compound 23, 5-(phenylthio)-9H-pyrido[2,3-b]indole], the IC50 was over 13 nM. Consider `Cc1cnc2[nH]c3c(O)ccc(-c4cccc(S(=O)(=O)C5CC5)c4)c3c2c1` [Compound 404, 5-(3-(cyclopropylsulfonyl)phenyl)-3-methyl-9H-pyrido[2,3-b]indol-8-ol], for which the IC50 was under 4 nM. Consider `CCS(=O)(=O)c1cccc(-c2ccc(OCCN3CCC(O)CC3)c3[nH]c4ncc(Cl)cc4c23)c1` [Compound 327, 1-(2-(3-chloro-5-(3-(ethylsulfonyl)phenyl)-9H-pyrido[2,3-b]indol-8-yloxy)ethyl)piperidin-4-ol], for which the IC50 was in the range of 8.6 to 13 nM. For the molecule `CCS(=O)(=O)c1cccc(-c2cnc(NC)c3[nH]c4ncc(C)cc4c23)c1` [Compound 74, 2-[5-(3-Ethanesulfonyl-phenyl)-3-methyl-9H-dipyrido[2,3-b;4′,3′-d]pyrrol-8-yl]methyl amine], the IC50 is under 4 nM. Consider `CCS(=O)(=O)c1cccc(-c2ccc(OCC3CCN(C)CC3)c3[nH]c4ncc(C)cc4c23)c1` [Compound 177, 5-(3-(ethylsulfonyl)phenyl)-3-methyl-8-((1-methylpiperidin-4-yl)methoxy)-9H-pyrido[2,3-b]indole], for which the IC50 lay in the range of 8.6 to 13 nM. On to `CCS(=O)(=O)c1cccc(-c2ccc(OC[C@@H](O)CO)c3[nH]c4ncc(C)cc4c23)c1` [Compound 230, (S)-3-(5-(3-(ethylsulfonyl)phenyl)-3-methyl-9H-pyrido[2,3-b]indol-8-yloxy)propane-1,2-diol], for which the half-maximal inhibitory concentration (IC50) was in the range of 4 to 5.5 nM. With `CCS(=O)(=O)c1cccc(-c2cc(C(=O)N3CCC(N(C)C)C3)cc3[nH]c4ncc(C)cc4c23)c1` (stereo not shown) [Compound 145, (3-Dimethylamino-pyrrolidin-1-yl)-[5-(3-ethanesulfonyl-phenyl)-3-methyl-9H-pyrido[2,3-b]indol-7-yl]-methanone], the IC50 is over 13 nM. Consider `Cc1cnc2[nH]c3c(OCCCN4CCC(OP(=O)(O)O)CC4)ccc(-c4cccc(S(=O)(=O)C5CC5)c4)c3c2c1` [Compound 444, 1-(3-(5-(3-(cyclopropylsulfonyl)phenyl)-3-methyl-9H-pyrido[2,3-b]indol-8-yloxy)propyl)piperidin-4-yl dihydrogen phosphate], for which the IC50 is under 4 nM.

Take `Cc1cnc2[nH]c3c(OCCCN(CCO)CC(F)(F)F)ccc(-c4cccc(S(=O)(=O)C5CC5)c4)c3c2c1` [Compound 339, 2-((3-(5-(3-(cyclopropylsulfonyl)phenyl)-3-methyl-9H-pyrido[2,3-b]indol-8-yloxy)propyl)(2,2,2-trifluoroethyl)amino)ethanol]: the IC50 was over 13 nM. The value for `CCS(=O)(=O)c1cccc(-c2cc(C(=O)Nc3nccs3)c(C)c3[nH]c4ncc(C)cc4c23)c1` [Compound 106] was 5.6 to 8.5 nM.

Take `CCS(=O)(=O)c1cccc(-c2ccc(OC[C@@H](C)O)c3[nH]c4ncc(C)cc4c23)c1` [Compound 233, (R)-1-(5-(3-(ethylsulfonyl)phenyl)-3-methyl-9H-pyrido[2,3-b]indol-8-yloxy)propan-2-ol]: the IC50 fell in the range of 5.6 to 8.5 nM. The value for `CCS(=O)(=O)c1cccc(-c2cc(C(=O)N(C)C)c(C)c3[nH]c4ncc(C)cc4c23)c1` [Compound 92, N,N-dimethyl-5-(3-(ethylsulfonyl)phenyl)-3,8-dimethyl-9H-pyrido[2,3-b]indole-7-methylcarboxamide] was 5.6 to 8.5 nM; that for `Cc1cnc2[nH]c3c(C)ccc(-c4cccc(S(=O)(=O)N(C)C)c4)c3c2c1` [Compound 16, 3-(3,8-dimethyl-9H-pyrido[2,3-b]indol-5-yl)-N,N-dimethylbenzenesulfonamide] was 5.6 to 8.5 nM; that for `CCS(=O)(=O)c1cccc(-c2ccc(OC[C@H](C)O)c3[nH]c4ncc(C)cc4c23)c1` [Compound 234, (S)-1-(5-(3-(ethylsulfonyl)phenyl)-3-methyl-9H-pyrido[2,3-b]indol-8-yloxy)propan-2-ol] was 4 to 5.5 nM.

Regarding `Cc1cnc2[nH]c3c(OCCCNCCO)ccc(-c4cccc(S(=O)(=O)C5CC5)c4)c3c2c1` [Compound 408, 2-(3-(5-(3-(cyclopropylsulfonyl)phenyl)-3-methyl-9H-pyrido[2,3-b]indol-8-yloxy)propylamino)ethanol], the IC50 is under 4 nM.

For `Cc1cnc2[nH]c3c(OCCN4CCC(O)CC4)ccc(-c4cccc(S(=O)(=O)C5CC5)c4)c3c2c1` [Compound 322, 1-(2-(5-(3-(cyclopropylsulfonyl)phenyl)-3-methyl-9H-pyrido[2,3-b]indol-8-yloxy)ethyl)piperidin-4-ol], the IC50 was under 4 nM. On to `CCS(=O)(=O)c1cccc(-c2ccc(C)c3[nH]c4ncc(C)cc4c23)c1` [Compound 18, 5-(3-(ethylsulfonyl)phenyl)-3,8-dimethyl-9H-pyrido[2,3-b]indole], for which the IC50 is 5.6 to 8.5 nM.

On to `CCS(=O)(=O)c1cccc(-c2cnc(C(N)=O)c3[nH]c4ncc(C)cc4c23)c1` [Compound 50, 5-(3-Ethanesulfonyl-phenyl)-3-methyl-9H-dipyrido[2,3-b;4′,3′-d]pyrrole-8-carboxylic acid amide], for which the 50% inhibitory concentration (IC50) fell in the range of 5.6 to 8.5 nM.

Consider `Cc1cnc2[nH]c3c(OCCCN(CCO)CC(F)F)ccc(-c4cccc(S(=O)(=O)C5CC5)c4)c3c2c1` [Compound 341, 2-((3-(5-(3-(cyclopropylsulfonyl)phenyl)-3-methyl-9H-pyrido[2,3-b]indol-8-yloxy)propyl)(2,2-difluoroethyl)amino)ethanol], for which the IC50 was over 13 nM. The value for `Cc1cnc2[nH]c3c(OC[C@H](CN(C)C)OP(=O)(O)O)ccc(-c4cccc(S(=O)(=O)C5CC5)c4)c3c2c1` [Compound 314, (S)-1-(5-(3-(cyclopropylsulfonyl)phenyl)-3-methyl-9H-pyrido[2,3-b]indol-8-yloxy)-3-(dimethylamino)propan-2-yl dihydrogen phosphate] was 4 to 5.5 nM; that for `CCS(=O)(=O)c1cccc(-c2cc(C(=O)O)cc3[nH]c4ncc(C)cc4c23)c1` [Compound 140, 5-(3-Ethanesulfonyl-phenyl)-3-methyl-9H-pyrido[2,3-b]indole-7-carboxylic acid] was 4 to 5.5 nM. The value for `Cc1cnc2[nH]c3c(C)c(C(=O)NC4CCN(C)CC4)cc(-c4cccc(NC(=O)C5CC5)c4)c3c2c1` [Compound 120, 5-(3-(cyclopropanecarboxamido)phenyl)-3,8-dimethyl-N-(1-methyl-piperidin-4-yl)-9H-pyrido[2,3-b]indole-7-carboxamide] was 5.6 to 8.5 nM; that for `CCS(=O)(=O)c1cccc(-c2cc(F)c(OCCN(C)C)c3[nH]c4ncc(C)cc4c23)c1` [Compound 204, 2-(5-(3-(ethylsulfonyl)phenyl)-7-fluoro-3-methyl-9H-pyrido[2,3-b]indol-8-yloxy)-N,N-dimethylethanamine] was 8.6 to 13 nM.

For `CCS(=O)(=O)c1cccc(-c2ccc(OC[C@@H]3CCN(C)C3)c3[nH]c4ncc(C)cc4c23)c1` [Compound 187, (R)-5-(3-(ethylsulfonyl)phenyl)-3-methyl-8-((1-methylpyrrolidin-3-yl)methoxy)-9H-pyrido[2,3-b]indole], the IC50 is over 13 nM. Turning to `CCS(=O)(=O)c1cccc(-c2cc(CO)cc3[nH]c4ncc(C)cc4c23)c1` [Compound 134, [5-(3-Ethanesulfonyl-phenyl)-3-methyl-9H-pyrido[2,3-b]indol-7-yl]-methanol], the IC50 was under 4 nM. In the case of `CCS(=O)(=O)c1cccc(-c2cc(C(=O)NCCCN(C)C)c(C)c3[nH]c4ncc(C)cc4c23)c1` [Compound 115, N-(3-(dimethylamino)propyl)-5-(3-(ethylsulfonyl)phenyl)-3,8-dimethyl-9H-pyrido[2,3-b]indole-7-carboxamide], the IC50 was in the range of 8.6 to 13 nM. For `Cc1cnc2[nH]c3c(OC[C@H](O)CN4CCOCC4)ccc(-c4cccc(S(=O)(=O)C5CC5)c4)c3c2c1` [Compound 380, (R)-1-(5-(3-(cyclopropylsulfonyl)phenyl)-3-methyl-9H-pyrido[2,3-b]indol-8-yloxy)-3-morpholinopropan-2-ol], the IC50 lay in the range of 4 to 5.5 nM. Take `CCS(=O)(=O)c1cccc(-c2cc(C(=O)NCC3CCN(C)CC3)c(C)c3[nH]c4ncc(C)cc4c23)c1` [Compound 114, 5-(3-(ethylsulfonyl)phenyl)-3,8-dimethyl-N-((1-methylpiperidin-4-yl)methyl)-9H-pyrido[2,3-b]indole-7-carboxamide]: the IC50 lay in the range of 5.6 to 8.5 nM. Next, `CCS(=O)(=O)c1cccc(-c2ccc(OCCCN(C)C)c3[nH]c4ncc(C)cc4c23)c1` [Compound 206, 3-(5-(3-(ethylsulfonyl)phenyl)-3-methyl-9H-pyrido[2,3-b]indol-8-yloxy)-N,N-dimethylpropan-1-amine]: 4 to 5.5 nM. Next, `Cc1cnc2[nH]c3c(OCC4CCN(C)CC4)ccc(-c4cccc(S(=O)(=O)C5CC5)c4)c3c2c1` [Compound 179, 5-(3-(cyclopropylsulfonyl)phenyl)-3-methyl-8-((1-methylpiperidin-4-yl)methoxy)-9H-pyrido[2,3-b]indole]: 5.6 to 8.5 nM.
